These results are taken from patent US12221459B2, “Cancer treatment with (2,2-bishydroxymethyl) methylenecyclopropane nucleotides” (MEDIVIR AB, priority 2018, dated 2025).

Data set [1] in a line: Structural integrity of triester phosphoroalaninates by LC MS over 22-29 days. The class given is physicochemical. How it is done:
Instability of Triester Phosphoroalaninates
Intermediate compounds I-19 d2 and I-25 synthesised above are triesterphosphoro-alaninates resembling the prior art compound described in Yan et al, J Med Chem 2005 48 91-99:
The structural integrity of these model compounds was assessed by LC MS over a 22-29 day period, as follows: […]

Data set [2] concerns THP-1 (human acute monocytic leukemia). Description: Leukemia cell line activity assay (Cell Counting Kit-8, 5 days), THP-1. On the technique in general: Formazan colour is commonly taken as a measure of viable cells.
Procedure: (§1) Compounds of the invention were evaluated for activity against the leukemia cell lines THP-1, EOL-1 and MV4-11, using the following assay:
(§2) Test compounds were made up to 10 mM stock solution in DMSO
(§3) Leukemia cells (THP-1, EOL-1 and MV4-11) were grown in a cell culture flask 75 cm^2 with approximately 100 ml complete cell medium. The cells were counted using a Scepter-hand held automated cell counter, using 60 μm sensors (Millipore) and suspended in complete cell medium to 2×10^5 cells. 100 μl of the cell suspension were seeded to all wells (2×10^4 cells/well).
(§4) The compounds were tested in twelve concentrations, 10-fold serial dilutions, 50 μM-5×10^−10 μM.
(§5) 100 μl from a compound dilution plate were transferred to the cell assay plate=200 μl/well total volume and incubated for 5 days, at 37° C., 5% CO2 incubator.
(§6) After 5 days, 10l of KIT-8 was added and the culture was incubated for 3-4 hours, at 37° C., 5% CO2 incubator.
(§7) Plate were read in the spectrophotometer at wavelength 450 nm with a reference filter of 620 nm.
(§8) CC50 values are calculated by plotting the degree of inhibition (compared to the vehicle ctrl) against the logarithm of the compound concentration. Result values in the dilution series are fitted to a 4-parameter sigmoidal dose-response curve described by the expression: F(x)=D+(A−D)/(1+(x/C)^B) where: • A=Minimum • B=Slope. • C=Inflection point. The inflection point is defined as the point on the curve where the curvature changes direction or signs. • D=Maximum • F=fraction inhibition
For the next data set, the system named is EOL-1 (human). Briefly: Leukemia cell line activity assay (Cell Counting Kit-8, 5 days), EOL-1. The conditions noted are these: read-out: EOL.1 CC50.
In data set [3] the test system is MV4-11 cells, human B-myelomonocytic leukemia. Description: Leukemia cell line activity assay (Cell Counting Kit-8, 5 days), MV4-11.
Procedure: as §1, §2, §3, §4, §5, §6, §7, §8

Where two headings read alike, the source gives them in different places.

Procedure for EOL-1 (human): as §1, §2, §3, §4, §5, §6, §7, §8

With `CCC[C@H](C)OC(=O)[C@H](C)N[P@](=O)(OC[C@]1(CO)C/C1=C/n1cnc2c(=O)[nH]c(N)nc21)Oc1ccc(Br)cc1` (single isomer, unassigned) [Intermediate I-19 d2], the LCMS purity was 96.86% in data set [1] (Day 0), 94.32% in data set [1] (Day 5), 88.76% in data set [1] (Day 14) and 73.76% in data set [1] (Day 22).

For `CC(C)OC(=O)[C@H](C)N[P@](=O)(OC[C@@]1(CO)C/C1=C/n1cnc2c(=O)[nH]c(N)nc21)Oc1ccc(C2(C)CC2)cc1` [Intermediate I-25, (S)-Isopropyl 2-(((S)-(((S,Z)-2-((2-amino-6-oxo-1H-purin-9(6H)-yl)methylene)-1-(hydroxymethyl)cyclopropyl)methoxy)(4-(1-methylcyclopropyl)phenoxy)phosphoryl)amino)propanoate], the LCMS purity in data set [1] (Day 0) was 95.56%; in data set [1] (Day 5), 88.14%; in data set [1] (Day 14), 82.67%; in data set [1] (Day 22), 77.76%; in data set [1] (Day 29) it was 72.84%.

For orientation: CC50 means the concentration giving 50% cytotoxicity. `CCC(CC)COC(=O)[C@H](CC(C)C)N[P@](=O)(OCC1(COC(=O)C(C)C)C/C1=C/n1ccc(N)nc1=O)Oc1ccccc1` (stereo partly drawn) [Example 34-2, 2-ethylbutyl((S)-(((Z)-2-((4-amino-2-oxopyrimidin-1(2H)-yl)methylene)-1-((isobutyryloxy)methyl)cyclopropyl)methoxy)(phenoxy)phosphoryl)-L-leucinate]: the CC50 stood at 340 nM in data set [2] (read-out: THP-1 CC50, THP-1 cells, 5 days incubation); 170 nM with EOL-1 (human) (EOL-1 cells, 5 days incubation); 440 nM in data set [3] (read-out: MV4-11 CC50, MV4-11 cells, 5 days incubation).

On to `CCCC(CCC)COC(=O)[C@H](C)N[P@](=O)(OC[C@@]1(COC(=O)[C@@H](N)C(C)C)C/C1=C/n1cnc2c(=O)[nH]c(N)nc21)Oc1ccccc1` [Example 1f-1, (S)-((S,Z)-2-((2-Amino-6-oxo-1H-purin-9(6H)-yl)methylene)-1-((((S)-(((S)-1-oxo-1-((2-propylpentyl)oxy)propan-2-yl)amino)(phenoxy)phosphoryl)oxy)methyl)cyclopropyl)methyl 2-amino-3-methylbutanoate], for which the CC50 in data set [2] (Homo sapiens, THP-1, 120 h, read-out: THP-1 CC50, THP-1 cells, 5 days incubation) came to 670 nM; in the data set with EOL-1 (human) (Homo sapiens, EOL1, 120 h), 120 nM; in data set [3] (Homo sapiens, MV4-11, 120 h, read-out: MV4-11 CC50, MV4-11 cells, 5 days incubation) it was 460 nM.
